From US12486300B2, “Mithramycin oxime derivatives having increased selectivity and anti-cancer activity” (University of Kentucky Research Foundation, priority 2018, dated 2025) come the findings set out here.

This test has as its system TC32 Ewing sarcoma cells, expressing EWS-FLI1. The test is described as follows: Growth inhibition assay, TC32 cells. It counts as cell-based. The following applies: ratio of GI50 PC3 to TC32. The protocol:
Growth inhibition assay to assess cytotoxicity in ETS vs non-ETS expressing cells. Cells were seeded in clear 96-well plates (VWR, Radnor, PA). Seeding densities were optimized for each cell line to support 5 days of linear growth. Following a 24 hours attachment period, cells in duplicate wells were treated with half-log increments of respective compounds (0 nM and 0.3 nM-10 μM). Working stocks were prepared from an initial 10 mM drug stock diluted in either 100% ethanol or dimethyl sulfoxide (DMSO). All wells contained a final concentration of 0.1% (v/v) respective organic solvent. Immediately following treatment, cell viability was measured for vehicle control (Day 0) wells. Cell viability was measured in the remaining wells after 72 hours of incubation with compound or vehicle control (Day 3).
Percent viability, relative to the initial cell seeding concentration, was calculated by ((TreatmentDay3−Vehicle ControlDay0)/(Vehicle ControlDay3−Vehicle ControlDay0))×100. Percent cell viability was plotted as a function of compound concentration (Log [M]) and the data were fit using a 3-parameter non-linear model with fixed Hill slope constant and 4-parameter non-linear model with variable Hill slope constant. The model with the best curve fit was used to estimate the GI50 in GraphPad Prism 7.0 software (GraphPad Software, La Jolla, CA). The 3-parameter equation used was Y=Bottom+(Top−Bottom)/(1+10[…]((X−Log[IC50]))). The 4-parameter equation used was Y=Bottom+(Top−Bottom)/(1+10[…]((Log[IC50]−X)*Hillslope)). Top and Bottom are plateaus in the units of the Y-axis (response). IC50 is the response (Y-axis) halfway between Top and Bottom plateaus.
All compounds were tested at least once in multi-well replicates and each experiment included one a control compound (i.e., MTM) to ensure the stable response of the cell lines. The selectivity index was estimated by determining the ratio of GI50 estimates between ETS fusion negative and ETS fusion positive cell lines.
Turning to `COC(C(=NOCC(=O)Nc1ccc2scnc2c1)C(O)C(C)O)C1Cc2cc3cc(OC4CC(OC5CC(O)C(O)C(C)O5)C(O)C(C)O4)c(C)c(O)c3c(O)c2C(=O)C1OC1CC(OC2CC(OC3CC(C)(O)C(O)C(C)O3)C(O)C(C)O2)C(O)C(C)O1` (stereo not shown) [MTM (69)], the “PC:TC32 (cellular selectivity)” value is 11.4. In the case of `COC(C(=NOC[Si](C)(C)C)C(O)C(C)O)C1Cc2cc3cc(OC4CC(OC5CC(O)C(O)C(C)O5)C(O)C(C)O4)c(C)c(O)c3c(O)c2C(=O)C1OC1CC(OC2CC(OC3CC(C)(O)C(O)C(C)O3)C(O)C(C)O2)C(O)C(C)O1` (stereo not shown) [MTM (5E)], the “PC:TC32 (cellular selectivity)” value turned out to be 1.28. For `COC(=O)C(Cc1cn(C)c2ccccc12)NC(=O)CON=C(C(O)C(C)O)C(OC)C1Cc2cc3cc(OC4CC(OC5CC(O)C(O)C(C)O5)C(O)C(C)O4)c(C)c(O)c3c(O)c2C(=O)C1OC1CC(OC2CC(OC3CC(C)(O)C(O)C(C)O3)C(O)C(C)O2)C(O)C(C)O1` (stereo not shown) [MTM (26)] the value was 5.64; for `C#CCON=C(C(O)C(C)O)C(OC)C1Cc2cc3cc(OC4CC(OC5CC(O)C(O)C(C)O5)C(O)C(C)O4)c(C)c(O)c3c(O)c2C(=O)C1OC1CC(OC2CC(OC3CC(C)(O)C(O)C(C)O3)C(O)C(C)O2)C(O)C(C)O1` (stereo not shown) [MTM (17Z)], 1.89.

As for `C#CCON=C(C(O)C(C)O)C(OC)C1Cc2cc3cc(OC4CC(OC5CC(O)C(O)C(C)O5)C(O)C(C)O4)c(C)c(O)c3c(O)c2C(=O)C1OC1CC(OC2CC(OC3CC(C)(O)C(O)C(C)O3)C(O)C(C)O2)C(O)C(C)O1` (stereo not shown) [MTM (17E)], the “PC:TC32 (cellular selectivity)” value was 2.40. For `COC(C(=NOCC(=O)NCc1ccc2[nH]ccc2c1)C(O)C(C)O)C1Cc2cc3cc(OC4CC(OC5CC(O)C(O)C(C)O5)C(O)C(C)O4)c(C)c(O)c3c(O)c2C(=O)C1OC1CC(OC2CC(OC3CC(C)(O)C(O)C(C)O3)C(O)C(C)O2)C(O)C(C)O1` (stereo not shown) [MTM (65)] the value was 20.1; for `COC(C(=NOC[Si](C)(C)C)C(O)C(C)O)C1Cc2cc3cc(OC4CC(OC5CC(O)C(O)C(C)O5)C(O)C(C)O4)c(C)c(O)c3c(O)c2C(=O)C1OC1CC(OC2CC(OC3CC(C)(O)C(O)C(C)O3)C(O)C(C)O2)C(O)C(C)O1` (stereo not shown) [MTM (5Z)], 0.68. For `COC(C(=NOCC(=O)Nc1ccc2cc[nH]c2c1)C(O)C(C)O)C1Cc2cc3cc(OC4CC(OC5CC(O)C(O)C(C)O5)C(O)C(C)O4)c(C)c(O)c3c(O)c2C(=O)C1OC1CC(OC2CC(OC3CC(C)(O)C(O)C(C)O3)C(O)C(C)O2)C(O)C(C)O1` (stereo not shown) [MTM (66)] the value was 4.2; for `COC(=O)c1ccc(NC(=O)CON=C(C(O)C(C)O)C(OC)C2Cc3cc4cc(OC5CC(OC6CC(O)C(O)C(C)O6)C(O)C(C)O5)c(C)c(O)c4c(O)c3C(=O)C2OC2CC(OC3CC(OC4CC(C)(O)C(O)C(C)O4)C(O)C(C)O3)C(O)C(C)O2)c(OCC(C)C)c1` (stereo not shown) [MTM (61)], 5.7; for `COC(C(=NOCC(=O)Nc1cccc2cc[nH]c12)C(O)C(C)O)C1Cc2cc3cc(OC4CC(OC5CC(O)C(O)C(C)O5)C(O)C(C)O4)c(C)c(O)c3c(O)c2C(=O)C1OC1CC(OC2CC(OC3CC(C)(O)C(O)C(C)O3)C(O)C(C)O2)C(O)C(C)O1` (stereo not shown) [MTMox (73)], 5.9.

As for `COC(C(=NOCCNC(=O)c1ccc([N+](=O)[O-])c(OCC(C)C)c1)C(O)C(C)O)C1Cc2cc3cc(OC4CC(OC5CC(O)C(O)C(C)O5)C(O)C(C)O4)c(C)c(O)c3c(O)c2C(=O)C1OC1CC(OC2CC(OC3CC(C)(O)C(O)C(C)O3)C(O)C(C)O2)C(O)C(C)O1` (stereo not shown) [MTM (63)], the “PC:TC32 (cellular selectivity)” value was determined as 13.3.

As to `COC(C(=NOCC(=O)Nc1ccc2ncsc2c1)C(O)C(C)O)C1Cc2cc3cc(OC4CC(OC5CC(O)C(O)C(C)O5)C(O)C(C)O4)c(C)c(O)c3c(O)c2C(=O)C1OC1CC(OC2CC(OC3CC(C)(O)C(O)C(C)O3)C(O)C(C)O2)C(O)C(C)O1` (stereo not shown) [MTM (70)], the “PC:TC32 (cellular selectivity)” value was found to be 7.2. For `COC(C(=NOCC(=O)Nc1ccc2[nH]ccc2c1)C(O)C(C)O)C1Cc2cc3cc(OC4CC(OC5CC(O)C(O)C(C)O5)C(O)C(C)O4)c(C)c(O)c3c(O)c2C(=O)C1OC1CC(OC2CC(OC3CC(C)(O)C(O)C(C)O3)C(O)C(C)O2)C(O)C(C)O1` (stereo not shown) [MTM (60)], the “PC:TC32 (cellular selectivity)” value is recorded as 10. As for `CON=C(C(O)C(C)O)C(OC)C1Cc2cc3cc(OC4CC(OC5CC(O)C(O)C(C)O5)C(O)C(C)O4)c(C)c(O)c3c(O)c2C(=O)C1OC1CC(OC2CC(OC3CC(C)(O)C(O)C(C)O3)C(O)C(C)O2)C(O)C(C)O1` (stereo not shown) [MTM (1)], the figure is 1.66; as for `COC(C(=NOCC(=O)Nc1ccc2[nH]cnc2c1)C(O)C(C)O)C1Cc2cc3cc(OC4CC(OC5CC(O)C(O)C(C)O5)C(O)C(C)O4)c(C)c(O)c3c(O)c2C(=O)C1OC1CC(OC2CC(OC3CC(C)(O)C(O)C(C)O3)C(O)C(C)O2)C(O)C(C)O1` (stereo not shown) [MTM (71)], 3.2; as for `COC(C(=NOCC(=O)NC(Cc1c[nH]c2ccccc12)C(=O)NCc1cnccn1)C(O)C(C)O)C1Cc2cc3cc(OC4CC(OC5CC(O)C(O)C(C)O5)C(O)C(C)O4)c(C)c(O)c3c(O)c2C(=O)C1OC1CC(OC2CC(OC3CC(C)(O)C(O)C(C)O3)C(O)C(C)O2)C(O)C(C)O1` (stereo not shown) [MTM (56)], 1.9.

As to `COC(=O)C(Cc1ccccc1)NC(=O)C(Cc1c[nH]c2ccccc12)NC(=O)CON=C(C(O)C(C)O)C(OC)C1Cc2cc3cc(OC4CC(OC5CC(O)C(O)C(C)O5)C(O)C(C)O4)c(C)c(O)c3c(O)c2C(=O)C1OC1CC(OC2CC(OC3CC(C)(O)C(O)C(C)O3)C(O)C(C)O2)C(O)C(C)O1` (stereo not shown) [MTM (25)], the “PC:TC32 (cellular selectivity)” value is 5.98. For `COC(=O)C(C)NC(=O)C(Cc1c[nH]c2ccccc12)NC(=O)CON=C(C(O)C(C)O)C(OC)C1Cc2cc3cc(OC4CC(OC5CC(O)C(O)C(C)O5)C(O)C(C)O4)c(C)c(O)c3c(O)c2C(=O)C1OC1CC(OC2CC(OC3CC(C)(O)C(O)C(C)O3)C(O)C(C)O2)C(O)C(C)O1` (stereo not shown) [MTM (52)] the value was 6.6; for `C=CCON=C(C(O)C(C)O)C(OC)C1Cc2cc3cc(OC4CC(OC5CC(O)C(O)C(C)O5)C(O)C(C)O4)c(C)c(O)c3c(O)c2C(=O)C1OC1CC(OC2CC(OC3CC(C)(O)C(O)C(C)O3)C(O)C(C)O2)C(O)C(C)O1` (stereo not shown) [MTM (10)], 1.10. As for `COC(C(=NOC(C)(C)C)C(O)C(C)O)C1Cc2cc3cc(OC4CC(OC5CC(O)C(O)C(C)O5)C(O)C(C)O4)c(C)c(O)c3c(O)c2C(=O)C1OC1CC(OC2CC(OC3CC(C)(O)C(O)C(C)O3)C(O)C(C)O2)C(O)C(C)O1` (stereo not shown) [MTM (15Z)], the figure is 2.25. For `COC(C(=NOCC(=O)NC(Cc1c[nH]c2ccccc12)C(=O)NCCc1c[nH]c2ccccc12)C(O)C(C)O)C1Cc2cc3cc(OC4CC(OC5CC(O)C(O)C(C)O5)C(O)C(C)O4)c(C)c(O)c3c(O)c2C(=O)C1OC1CC(OC2CC(OC3CC(C)(O)C(O)C(C)O3)C(O)C(C)O2)C(O)C(C)O1` (stereo not shown) [MTM (43)] the value was 2.6; for `COC(C(=NOCC(=O)Nc1ccncc1)C(O)C(C)O)C1Cc2cc3cc(OC4CC(OC5CC(O)C(O)C(C)O5)C(O)C(C)O4)c(C)c(O)c3c(O)c2C(=O)C1OC1CC(OC2CC(OC3CC(C)(O)C(O)C(C)O3)C(O)C(C)O2)C(O)C(C)O1` (stereo not shown) [MTM (45)], 2.4; for `COC(C(=NOCC(=O)Nc1ccc2cnccc2c1)C(O)C(C)O)C1Cc2cc3cc(OC4CC(OC5CC(O)C(O)C(C)O5)C(O)C(C)O4)c(C)c(O)c3c(O)c2C(=O)C1OC1CC(OC2CC(OC3CC(C)(O)C(O)C(C)O3)C(O)C(C)O2)C(O)C(C)O1` (stereo not shown) [MTM (75)], 118. Consider `COC(C(=NOCCc1c[nH]c2ccccc12)C(O)C(C)O)C1Cc2cc3cc(OC4CC(OC5CC(O)C(O)C(C)O5)C(O)C(C)O4)c(C)c(O)c3c(O)c2C(=O)C1OC1CC(OC2CC(OC3CC(C)(O)C(O)C(C)O3)C(O)C(C)O2)C(O)C(C)O1` (stereo not shown) [MTM (19E)], for which the “PC:TC32 (cellular selectivity)” value came to 1.40. For `COc1ccc(CON=C(C(O)C(C)O)C(OC)C2Cc3cc4cc(OC5CC(OC6CC(O)C(O)C(C)O6)C(O)C(C)O5)c(C)c(O)c4c(O)c3C(=O)C2OC2CC(OC3CC(OC4CC(C)(O)C(O)C(C)O4)C(O)C(C)O3)C(O)C(C)O2)cc1` (stereo not shown) [MTM (14E)] the value was 2.05.

For the compound `COC(=O)C(Cc1ccccc1)NC(=O)C(Cc1ccccc1)NC(=O)CON=C(C(O)C(C)O)C(OC)C1Cc2cc3cc(OC4CC(OC5CC(O)C(O)C(C)O5)C(O)C(C)O4)c(C)c(O)c3c(O)c2C(=O)C1OC1CC(OC2CC(OC3CC(C)(O)C(O)C(C)O3)C(O)C(C)O2)C(O)C(C)O1` (stereo not shown) [MTM (28)], the “PC:TC32 (cellular selectivity)” value is on record as 11.68. Consider `COC(=O)C(Cc1ccccc1)NC(=O)CON=C(C(O)C(C)O)C(OC)C1Cc2cc3cc(OC4CC(OC5CC(O)C(O)C(C)O5)C(O)C(C)O4)c(C)c(O)c3c(O)c2C(=O)C1OC1CC(OC2CC(OC3CC(C)(O)C(O)C(C)O3)C(O)C(C)O2)C(O)C(C)O1` (stereo not shown) [MTM (27)], for which the “PC:TC32 (cellular selectivity)” value amounted to 7.06. As for `COC(C(=NOCCc1c[nH]c2ccccc12)C(O)C(C)O)C1Cc2cc3cc(OC4CC(OC5CC(O)C(O)C(C)O5)C(O)C(C)O4)c(C)c(O)c3c(O)c2C(=O)C1OC1CC(OC2CC(OC3CC(C)(O)C(O)C(C)O3)C(O)C(C)O2)C(O)C(C)O1` (stereo not shown) [MTM (19)], the figure is 1.70.
